Source: paper PMC12662241, “New xanthone and chemical constituents from the aerial parts of Mallotus glomerulatus and their cytotoxicity in MCF-7 and MDA-MB-231 breast cancer cells” (ADMET & DMPK, 2025)
Where two headings read alike, the source gives them in different places.

What was measured:
MCF-7 cells [1] = assay: Primary screening, MTT cell viability, MCF-7; details: for viability at 50 µM: Homo sapiens, MCF7, 72 h, read-out: MCF-7 cell viability, %, 50 μM, 72 h, MTT; for inhibition of viability of MCF-7 cells: primary single-concentration screening
Procedure: (§1) MCF-7 cells were cultured in Dulbecco's Modified Eagle Medium/Nutrient Mixture F-12 (DMEM/F-12) (Gibco, New York, USA), which was supplemented with 10 % fetal bovine serum (FBS) (Gibco, New York, USA) and 1 % Penicillin-Streptomycin (P/S) (Gibco, New York, USA). MDA-MB-231 cells were cultured in DMEM high glucose (Gibco, New York, USA), supplemented with 10 % FBS and 1 % P/S.
(§2) MCF-7 cells were cultured in DMEM/F-12, while MDA-MB-231 cells were maintained in high-glucose DMEM. Both media were supplemented with 10 % foetal bovine serum (FBS) and 1 % penicillin/streptomycin (P/S). Cells were incubated for 24 h at 37 °C in a humidified atmosphere with 5 % CO2. […] Doxorubicin was used as a positive control. Following compound treatment, cells were incubated for 72 h under standard culture conditions. After treatment, the medium was replaced with serum-free medium containing 0.5 mg mL^-1 of 3-(4,5-dimethylthiazol-2-yl)-2,5-diphenyltetrazolium bromide (MTT), and cells were incubated for an additional 3 h. The MTT solution was then removed, and dimethyl sulfoxide (DMSO) was added to solubilize the formazan crystals. Absorbance was measured at 595 nm using a Microplate Spectrophotometer MR-850 BioPlate Reader (Biometrics Technologies, Wilmington, DE, USA). Compounds that reduced cell viability to ≤20 % compared to untreated controls were identified as hits for subsequent dose-response analysis. […] Treated cells were incubated for 72 h, followed by an MTT assay as described above. The absorbance at 595 nm was recorded, and IC50 values were determined using GraphPad Prism 9 (GraphPad Software, San Diego, CA, USA).

MDA-MB-231 cells [2] = assay: Primary screening, MTT cell viability, MDA-MB-231; details: for viability at 50 µM: Homo sapiens, MDA-MB-231, 72 h, read-out: MDA-MB-231 cell viability, %, 50 μM, 72 h, MTT
Procedure: as §1, §2

MDA-MB-231 cells [3] = details: 50 µM
Procedure: as §1, §2

MCF-7 cells [4] = details: 50 µM
Procedure: as §1, §2

in vitro = details: human, HepG2 cells
Procedure: (§3) The human liver cells (HepG2 cells) were seeded into a 96-well plate at a cell density of 10^4 cells/well and were incubated with DMEM/F-12 with 10 % FBS and 1 % P/S for 24 hours in an incubator (37 °C and 5 % CO2). […] Then, they were additionally incubated for 72 hours. After 72 hours of incubation, the culture media containing the compounds were removed, and serum-free media containing MTT was added instead, with an additional 3 hours of incubation at 37 °C and 5 % CO2. After 3 hours of incubation, the MTT-containing media was removed and DMSO was added to the assay plates, resulting in different shades of purple colour measured by Microplate Spectrophotometer MR-850 BioPlate Reader. The calculation of CC50 was analysed by using GraphPad Prism 9.

HepG2 cells = details: for SI (CC50/IC50) HepG2: MCF-7: ratio of CC50 in HepG2 to IC50 in MCF-7; for SI (CC50/IC50) HepG2: MDA-MB-231: ratio of CC50 in HepG2 to IC50 in MDA-MB-231
Procedure: as §3

MCF-7 cells [5] = assay: Secondary screening (dose-response), MTT assay, MCF-7; format: cell-based, human; details: read-out: IC50 MCF-7
Procedure: as §1, §2

MDA-MB-231 cells [6] = assay: Secondary screening (dose-response), MTT assay, MDA-MB-231; format: cell-based, human; details: read-out: IC50 MDA-MB-231
Procedure: as §1, §2

Compound C[C@H]1C(=O)CC[C@@H]2[C@]1(C)CC[C@H]1[C@@]2(C)CC[C@@]2(C)[C@@H]3CC(C)(C)CC[C@]3(C)CC[C@]12C [Compound 3, friedelin] has a viability at 50 µM (MCF-7 cells [1]; mean ± SEM) of 79.2 ± 4.29% and a viability at 50 µM (MDA-MB-231 cells [2]; mean ± SEM) of 68.1 ± 2.96%.

For 3,6-phenanthrenedione [Compound 5], the “MDA-MB-231 cell viability, %” value (MDA-MB-231 cells [3]) was 68.01 ± 3.88% and the “MCF-7 cell viability, %” value (MCF-7 cells [4]) was 75.58 ± 4.26%.

COc1cc(-c2cc(=O)c3c(O)c(OC)c(OC)cc3o2)cc(OC)c1OC [Compound 8, 5-hydroxy-6,7,3',4',5'-pentamethoxyflavone] gave a viability at 50 µM (MCF-7 cells [1]; mean ± SEM) of 63.1 ± 1.83% and a viability at 50 µM (MDA-MB-231 cells [2]; mean ± SEM) of 44.7 ± 1.93%.

In the case of COc1cccc2c1C(=O)c1c(O)c3c(c(O)c1C2=O)C[C@@](O)(C(=O)CO)C[C@@H]3O[C@H]1C[C@H](N)[C@H](O)[C@H](C)O1 [Doxorubicin, reference compound], the CC50 at 72 h (in vitro) is reported as 550 nM, the “SI (CC50/IC50) HepG2: MCF-7” value (HepG2 cells; listed as DoxorubICin) is reported as 0.83 and the “SI (CC50/IC50) HepG2: MCF-7” value (HepG2 cells; listed as doxorubicin) is reported as “below 1”. For the same compound, the “SI (CC50/IC50) HepG2: MDA-MB-231” value (HepG2 cells; listed as DoxorubICin) was 0.56, the “SI (CC50/IC50) HepG2: MDA-MB-231” value (HepG2 cells; listed as doxorubicin) was “below 1” and the IC50 (MCF-7 cells [5]; Homo sapiens, MCF7, 72 h, MTT, mean ± SD) was 660 nM. It also gave a viability at 50 µM (MCF-7 cells [1]; mean ± SEM) of 4.02 ± 0.24%, an IC50 (MDA-MB-231 cells [6]; Homo sapiens, MDA-MB-231, 72 h, MTT, mean ± SD) of 980 nM and a viability at 50 µM (MDA-MB-231 cells [2]; mean ± SEM) of 4.72 ± 1.07%.

Compound O=c1cc(-c2ccccc2)oc2cc(O)cc(O)c12 [Compound 9, chrysin] has a viability at 50 µM (MCF-7 cells [1]; mean ± SEM) of 76.7 ± 3.4% and a viability at 50 µM (MDA-MB-231 cells [2]; mean ± SEM) of 64.5 ± 1.19%.

For “(3,4,5)-trihydroxy-6-methoxy-2,7-bis(3-methylbut-2-en-1-yl)-9H-xanthen-9-one [Compound 1]”, the CC50 (HepG2 cells; read-out: CC50 HepG2, 72 h, MTT) was 32800 nM, the IC50 (MCF-7 cells [5]; 72 h, MTT, mean ± SD) was 28300 nM and the “MCF-7 cell viability, %” value (MCF-7 cells [1]; 50 μM, 72 h, MTT, mean ± SEM) was 1.60 ± 0.10%. For the same compound, the “inhibition of viability of MCF-7 cells” value (MCF-7 cells [1]; 50 μM, 72 h) was “more than 80%”, the IC50 (MDA-MB-231 cells [6]; 72 h, MTT, mean ± SD) was 34200 nM and the “MDA-MB-231 cell viability, %” value (MDA-MB-231 cells [2]; 50 μM, 72 h, MTT, mean ± SEM) was 59.00 ± 3.33%.

Work on O=C1C[C@@H](c2ccccc2)Oc2cc(O)cc(O)c21 [Compound 6, pinocembrin] yielded a viability at 50 µM (MCF-7 cells [1]; mean ± SEM) of 95.6 ± 2.96% and a viability at 50 µM (MDA-MB-231 cells [2]; mean ± SEM) of 74.4 ± 2.32%.

Work on COc1cc(O)c2c(c1)O[C@H](c1ccccc1)CC2=O [Compound 7, pinostrobin] yielded a viability at 50 µM (MCF-7 cells [1]; mean ± SEM) of 88.5 ± 4.12% and a viability at 50 µM (MDA-MB-231 cells [2]; mean ± SEM) of 61.6 ± 3.69%.

For CC1(C)C(=O)C=C[C@]2(C)[C@@H]1CC[C@@]13C[C@@H](CC[C@H]12)C(O)(CO)C3 (stereo partly drawn) [Compound 4, anomaluone], the viability at 50 µM (MCF-7 cells [1]; mean ± SEM) was 72.7 ± 4.68% and the viability at 50 µM (MDA-MB-231 cells [2]; mean ± SEM) was 53.8 ± 1.88%.

C=C[C@@]1(C)C[C@H]2C[C@H](O)[C@]3(O)[C@@H](CCCC3(C)C)[C@]2(C)CC1=O [Compound 2, glomerulatusin] showed a viability at 50 µM (MCF-7 cells [1]; mean ± SEM) of 77.7 ± 4.87% and a viability at 50 µM (MDA-MB-231 cells [2]; mean ± SEM) of 56.3 ± 2.17%.

Compound CC(=O)c1ccc(O)cc1 [Compound 11, 4-hydroxyacetophenone] has a viability at 50 µM (MCF-7 cells [1]; mean ± SEM) of 85.2 ± 4.2% and a viability at 50 µM (MDA-MB-231 cells [2]; mean ± SEM) of 50.2 ± 2.73%.

In the case of COc1cc2c(O[C@@H]3OC[C@@H](OC)[C@H](OC)[C@H]3O)c3c(c(-c4ccc5c(c4)OCO5)c2cc1OC)C(=O)OC3 [Compound 10, cleistanthin A], the CC50 at 72 h (in vitro) is reported as 5370 nM, the “SI (CC50/IC50) HepG2: MDA-MB-231” value (HepG2 cells) is reported as 268.50 and the “SI (CC50/IC50) HepG2: MDA-MB-231” value (HepG2 cells; listed as cleistanthin A) is reported as over 100. The IC50 (MCF-7 cells [5]; Homo sapiens, MCF7, 72 h) was 540 nM, the viability at 50 µM (MCF-7 cells [1]; mean ± SEM) was 1.72 ± 0.23% and the “inhibition of viability of MCF-7 cells” value (MCF-7 cells [1]; 50 μM, 72 h) was “more than 80%”. For the same compound, the IC50 (MDA-MB-231 cells [6]; Homo sapiens, MDA-MB-231, 72 h) was 20 nM, the viability at 50 µM (MDA-MB-231 cells [2]; mean ± SEM) was 8.85 ± 0.73% and the “inhibition of viability of MDA-MB-231 cells” value (MDA-MB-231 cells [2]; primary single-concentration screening, 50 μM, 72 h) was “more than 80%”.
